According to patent US20230277525A1, “CONJUGATE OF FUNCTIONAL DRUG AND TOLL-LIKE RECEPTOR 7 OR 8 AGONIST OF WHICH ACTIVE SITE IS TEMPORARILY INACTIVATED AND USE THEREOF” (priority 2020, published 2023):

B1: complex of the OVA protein antigen and resiquimod, having a bond cleaved by cathepsin-B: OVA protein antigen linked to resiquimod active site via Mal-Val-Cit-PAB linker cleaved by cathepsin-B (conjugate, UniProt P01012 2-386, looked up)
Ovalbumin: GSIGAASMEFCFDVFKELKVHHANENIFYCPIAIMSALAMVYLGAKDSTRTQINKVVRFDKLPGFGDSIEAQCGTSVNVHSSLRDILNQITKPNDVYSFSLASRLYAEERYPILPEYLQCVKELYRGGLEPINFQTAADQARELINSWVESQTNGIIRNVLQPSSVDSQTAMVLVNAIVFKGLWEKAFKDEDTQAMPFRVTEQESKPVQMMYQIGLFRVASMASEKMKILELPFASGTMSMLVLLPDEVSGLEQLESIINFEKLTEWTSSNVMEERKIKVYLPRMKMEEKYNLTSVLMAMGITDVFSSSANLSGISSAESLKISQAVHAAHAEINEAGREVVGSAEAGVDAASVSEEFRADHPFLFCIKHIATNAVLFFGRCVSP
modifications: resiquimod via Mal-Val-Cit-PAB linker

Columns and labels:
IL-6 [1] = assay: blood inflammatory cytokine (IL-6) level after intravenous injection, AAC-001 study; assay type: in vivo; conditions: mouse, blood collected at 0, 1, 2 and 4 hours, ELISA, FIG. 18
Procedure: To confirm the effect of the antibody-resiquimod complex (AAC-001) synthesized in the same manner as in Example 14.1 on the secretion of inflammatory cytokine in blood, after intravenously injecting the AAC-001 complex or resiquimod into a mouse, blood samples were collected at 0, 1, 2, and 4 hours. The collected blood sample was centrifuged at 10,000×g for 20 minutes to separate serum, and the concentration of IL-6, which is a representative inflammatory cytokine, present in serum was measured using the Invitrogen mouse IL-6 ELISA kit.

IL-6 [2] = assay: blood inflammatory cytokine (IL-6) level after intravenous injection, AAC-002 study; assay type: in vivo; conditions: mouse, two hours after intravenous injection, ELISA; FIG. 20
Procedure: To confirm the effect of the antibody-resiquimod complex (AAC-002) synthesized in the same manner as in Example 15.1 on the secretion of an inflammatory cytokine in blood, two hours after the AAC-002 complex (conjugated TLR7/8a-Blocked active site) was intravenously injected into a mouse, blood samples were collected. The collected blood sample was centrifuged at 10,000×g for 20 minutes to separate serum, and the concentration of IL-6, which is a representative inflammatory cytokine, present in serum was measured using the Invitrogen mouse IL-6 ELISA kit. As controls, a phosphate-buffered saline-injected group (Blank), a resiquimod only-injected group (Bare TLR7/8a-Uncomplexd), and a group into which an antibody-resiquimod complex in which the antibody binds to a site other than the active site, is injected (conjugated TLR7/8a-Live active site) were used for comparison.

[3] = size of complex in aqueous solution by spectroscopy; assay type: physicochemical; conditions: in an aqueous solution; FIG. 21
Procedure: To synthesize a complex of a protein antigen, which is a type of sulfhydryl group-containing protein-based drug, and resiquimod, having a bond cleaved by cathepsin-B, first, resiquimod to which a linker binds to its active site was synthesized. In further detail, resiquimod (10 mg) and Mal-Val-Cit-PAB-PNP (47.2 mg) were added to 2 mL of N,N-dimethylformamide (DMF), and then dissolved. Afterward, N,N-diisopropylethylamine (DIPEA; 6.7 μL) and 1-hydroxybenzotriazole hydrate (1-HOBt; 315 μg) were added. Then, a mixture was prepared by stirring at room temperature for 16 hours. The OVA protein antigen (10 mg) was added to the prepared mixture and reacted, thereby preparing a complex, and then the resulting complex was purified by thin-layer chromatography, thereby preparing an OVA protein antigen-resiquimod complex having a bond cleaved by cathepsin-B. Then, the prepared complex was subjected to spectroscopy to confirm its size.

Row | Molecule | inflammatory cytokine (IL-6) level in serum (IL-6 [1]) | inflammatory cytokine (IL-6) level in serum (IL-6 [2]) | nanoparticle size [3]
1 | CCOCc1nc2c(N)nc3ccccc3c2n1CC(C)(C)O [resiquimod] | promotes the secretion of inflammatory cytokines and induces a cytokine storm | remarkably increasing an inflammatory cytokine level in blood | –
2 | B1 | – | – | approximately 99.7 nm
